Data as given in PMC13421293 (Thrombosis and Haemostasis, 2025).

What was measured:
[1] = Concentrations of ticagrelor and active metabolite AR-C124910XX by LC-MS in unstable angina patients; conditions: for AUC: AUC TPC, total exposure to ticagrelor, area under the ticagrelor plasma concentration curve, 0–360 min; for concentration at 15 min: 15 min post ticagrelor LD 180 mg; for concentration at 30 min: 30 min post ticagrelor LD 180 mg; for concentration at 45 min: 45 min post ticagrelor LD 180 mg; for concentration at 60 min: 60 min post ticagrelor LD 180 mg; for concentration at 120 min: 120 min post ticagrelor LD 180 mg; for concentration at 240 min: 240 min post ticagrelor LD 180 mg; for concentration at 360 min: 360 min post ticagrelor LD 180 mg
[2] = system: platelet reactivity; assay: Platelet reactivity by multiple electrode aggregometry (Multiplate) in unstable angina patients
[3] = system: canine platelet; set-up: method as in PMID 5554584; conditions: commonly used concentrations; cited from earlier work
[4] = 0–360 min post ticagrelor LD 180 mg
[5] = human, plasma, oral, 180 mg, Ticagrelor plasma concentration, Mean ± SD
[6] = human, plasma, oral, 180 mg, Ticagrelor plasma concentration, Median (Q1–Q3)
[7] = 15 min post ticagrelor LD 180 mg, MEA
[8] = 30 min post ticagrelor LD 180 mg, MEA
[9] = 45 min post ticagrelor LD 180 mg, MEA
[10] = 60 min post ticagrelor LD 180 mg, MEA
[11] = 120 min post ticagrelor LD 180 mg, MEA
[12] = 180 min post ticagrelor LD 180 mg, MEA
[13] = 240 min post ticagrelor LD 180 mg, MEA
[14] = time to reach low platelet reactivity after ticagrelor LD, MEA

SMILES: CCCSc1nc(N[C@@H]2C[C@H]2c2ccc(F)c(F)c2)c2nnn([C@@H]3C[C@H](OCCO)[C@@H](O)[C@H]3O)c2n1 [Ticagrelor, ticagrelor]
- Ticagrelor maximum concentration, Mean ± SD [1, 4]: 699 ± 257 ng/mL
- Ticagrelor maximum concentration, Median (Q1–Q3) [1, 4]: 680 (514–800) ng/mL
- Ticagrelor plasma concentration, Mean ± SD ([1]; baseline): 0 ng/mL
- Ticagrelor plasma concentration, Median (Q1–Q3) ([1]; baseline): 0 ng/mL
- AUC ([1]; human, plasma, oral, 180 mg, Mean ± SD): 2310 ng·h/mL
- AUC ([1]; human, plasma, oral, 180 mg, Median (Q1–Q3)): 2070 ng·h/mL
- concentration at 15 min [1, 5]: 20 ± 29 ng/mL
- concentration at 30 min [1, 5]: 171 ± 237 ng/mL
- concentration at 45 min [1, 5]: 329 ± 353 ng/mL
- concentration at 60 min [1, 5]: 464 ± 379 ng/mL
- concentration at 120 min [1, 5]: 533 ± 243 ng/mL
- concentration at 240 min [1, 5]: 404 ± 136 ng/mL
- concentration at 360 min [1, 5]: 291 ± 94 ng/mL
- concentration at 15 min [1, 6]: 13 ng/mL
- concentration at 30 min [1, 6]: 69 ng/mL
- concentration at 45 min [1, 6]: 210 ng/mL
- concentration at 60 min [1, 6]: 316 ng/mL
- concentration at 120 min [1, 6]: 569 ng/mL
- concentration at 180 min ([1]; human, plasma, oral, 180 mg, Ticagrelor plasma concentration, Median (Q1–Q3), 180 min post ticagrelor LD 180 mg): 453 ng/mL
- concentration at 240 min [1, 6]: 402 ng/mL
- concentration at 360 min [1, 6]: 290 ng/mL
- AUC 15 (platelet reactivity), Mean ± SD [2, 7]: 66.08 ± 26.54 U
- AUC 15 (platelet reactivity), Median (Q1–Q3) [2, 7]: 66 (48–87) U
- AUC 30 (platelet reactivity), Mean ± SD [2, 8]: 47.76 ± 27.79 U
- AUC 30 (platelet reactivity), Median (Q1–Q3) [2, 8]: 36 (27–66) U
- AUC 45 (platelet reactivity), Mean ± SD [2, 9]: 34.56 ± 22.95 U
- AUC 45 (platelet reactivity), Median (Q1–Q3) [2, 9]: 28 (17–36) U
- AUC 60 (platelet reactivity), Mean ± SD [2, 10]: 26.64 ± 17.75 U
- AUC 60 (platelet reactivity), Median (Q1–Q3) [2, 10]: 26 (16–32) U
- AUC 120 (platelet reactivity), Mean ± SD [2, 11]: 21.6 ± 13.37 U
- AUC 120 (platelet reactivity), Median (Q1–Q3) [2, 11]: 21 (17–25) U
- AUC 180 (platelet reactivity), Mean ± SD [2, 12]: 21.32 ± 12.03 U
- AUC 180 (platelet reactivity), Median (Q1–Q3) [2, 12]: 22 (13–28) U
- AUC 240 (platelet reactivity), Mean ± SD [2, 13]: 23.76 ± 16.86 U
- AUC 240 (platelet reactivity), Median (Q1–Q3) [2, 13]: 22 (17–26) U
- AUC 360 (platelet reactivity), Median (Q1–Q3) ([2]; 360 min post ticagrelor LD 180 mg, MEA): 19 (12–25) U
- AUC 0 (platelet reactivity), Median (Q1–Q3) ([2]; baseline, MEA, UA patients): 73 (54–95) U
- AUC 0 (platelet reactivity, area under the aggregation curve), Mean ± SD ([2]; baseline, MEA, UA patients): 76.36 ± 21.82 U
- Time to AUC < 46 U, Mean ± SD [2, 14]: 43.8 ± 46.42
- Time to AUC < 46 U, Median (Q1–Q3) [2, 14]: 30 (30–45)

SMILES: CCOCC [diethyl ether]
- ADP-induced canine platelet aggregation [3]: significant reduction

SMILES: FC(F)(F)C(Cl)Br (stereo not drawn) [halothane]
- ADP-induced canine platelet aggregation [3]: significant reduction

SMILES: COC(F)(F)C(Cl)Cl [methoxyflurane]
- ADP-induced canine platelet aggregation [3]: significant reduction
- effect on platelet reactivity ([2]; methoxyflurane added to ticagrelor LD vs ticagrelor alone, MEA AUC): inhibitory effect

SMILES: [N-]=[N+]=O [nitrous oxide]
- ADP-induced canine platelet aggregation [3]: significant reduction
